Results reported in the kinase profiling compilation of Christmann-Franck et al. (2016).
Blank lines part the entries; values can stand above or below the molecule they belong to.

How the values were obtained:
Assay in all cases: radiometric filter-binding kinase assay
GSK3B (human) = GSK3B (human) (UniProt P49841); conditions: compound 1.0 µM; ATP 5 µM
MAPK9 (human) = MAPK9 (human) (UniProt P45984); conditions: compound 1.0 µM; ATP 20 µM
MAPK11 (human) = MAPK11 (human) (UniProt Q15759); conditions: ATP 20 µM
NEK2 (human) = NEK2 (human) (UniProt P51955); conditions: ATP 50 µM
Sequence of NEK2 (human) (P51955 whole entry, looked up): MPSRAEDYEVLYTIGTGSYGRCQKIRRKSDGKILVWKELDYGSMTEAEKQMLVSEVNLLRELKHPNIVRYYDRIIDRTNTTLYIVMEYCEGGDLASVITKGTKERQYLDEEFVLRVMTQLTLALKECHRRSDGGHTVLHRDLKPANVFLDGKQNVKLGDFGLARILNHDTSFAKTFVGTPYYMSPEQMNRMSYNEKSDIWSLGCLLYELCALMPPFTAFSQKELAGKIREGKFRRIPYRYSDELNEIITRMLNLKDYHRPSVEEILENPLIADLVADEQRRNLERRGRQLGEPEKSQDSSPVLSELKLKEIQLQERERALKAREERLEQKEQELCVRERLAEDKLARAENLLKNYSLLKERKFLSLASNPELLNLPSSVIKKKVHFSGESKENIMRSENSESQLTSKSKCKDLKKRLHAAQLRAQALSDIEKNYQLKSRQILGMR

MAPK10 (human) = MAPK10 (human) (UniProt P53779); conditions: ATP 50 µM
Sequence of MAPK10 (human) (P53779 whole entry, looked up): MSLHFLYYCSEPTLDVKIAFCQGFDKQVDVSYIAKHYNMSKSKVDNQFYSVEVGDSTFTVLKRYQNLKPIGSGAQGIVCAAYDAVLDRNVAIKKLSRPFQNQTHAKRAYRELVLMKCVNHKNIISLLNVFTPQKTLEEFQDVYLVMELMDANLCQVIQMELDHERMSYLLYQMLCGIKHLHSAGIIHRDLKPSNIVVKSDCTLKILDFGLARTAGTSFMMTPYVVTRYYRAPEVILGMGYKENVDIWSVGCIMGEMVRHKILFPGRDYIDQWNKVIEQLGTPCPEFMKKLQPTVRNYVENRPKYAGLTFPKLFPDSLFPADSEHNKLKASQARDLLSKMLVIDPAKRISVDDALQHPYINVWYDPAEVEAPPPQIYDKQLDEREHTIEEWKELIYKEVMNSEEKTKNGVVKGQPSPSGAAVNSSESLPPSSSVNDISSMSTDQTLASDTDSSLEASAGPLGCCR

MAPK15 (human) = MAPK15 (human) (UniProt Q8TD08); conditions: ATP 5 µM
PLK1 (human) = PLK1 (human) (UniProt P53350); conditions: ATP 5 µM
PIM3 (human) = PIM3 (human) (UniProt Q86V86); conditions: ATP 20 µM
[1] = test system: RPS6KB1 (human), P23443 [T412E]; conditions: ATP 20 µM
Sequence of RPS6KB1 (human), P23443 [T412E] (P23443 whole entry T412E, looked up): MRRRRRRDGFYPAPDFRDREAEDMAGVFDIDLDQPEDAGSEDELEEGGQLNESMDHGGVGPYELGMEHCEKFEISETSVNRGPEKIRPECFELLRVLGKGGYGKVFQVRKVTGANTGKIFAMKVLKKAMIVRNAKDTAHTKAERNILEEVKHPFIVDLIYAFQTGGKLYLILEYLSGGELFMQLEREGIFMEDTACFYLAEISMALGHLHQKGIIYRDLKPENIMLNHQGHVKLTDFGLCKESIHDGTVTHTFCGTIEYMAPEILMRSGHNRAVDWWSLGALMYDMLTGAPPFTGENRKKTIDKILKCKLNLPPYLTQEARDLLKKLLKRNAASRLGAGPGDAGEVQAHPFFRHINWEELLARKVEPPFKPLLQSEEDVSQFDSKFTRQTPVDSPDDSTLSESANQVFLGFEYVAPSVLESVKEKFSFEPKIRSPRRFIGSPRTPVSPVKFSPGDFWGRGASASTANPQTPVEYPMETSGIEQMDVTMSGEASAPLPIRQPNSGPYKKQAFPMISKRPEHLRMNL

LCK (mouse) = conditions: ATP 50 µM, accession and sequence are those of the human protein
CAMKK1 (human) = CAMKK1 (human) (UniProt Q8N5S9); conditions: ATP 20 µM
HIPK3 (human) = HIPK3 (human) (UniProt Q9H422); conditions: ATP 20 µM
Sequence of HIPK3 (human) (Q9H422 whole entry, looked up): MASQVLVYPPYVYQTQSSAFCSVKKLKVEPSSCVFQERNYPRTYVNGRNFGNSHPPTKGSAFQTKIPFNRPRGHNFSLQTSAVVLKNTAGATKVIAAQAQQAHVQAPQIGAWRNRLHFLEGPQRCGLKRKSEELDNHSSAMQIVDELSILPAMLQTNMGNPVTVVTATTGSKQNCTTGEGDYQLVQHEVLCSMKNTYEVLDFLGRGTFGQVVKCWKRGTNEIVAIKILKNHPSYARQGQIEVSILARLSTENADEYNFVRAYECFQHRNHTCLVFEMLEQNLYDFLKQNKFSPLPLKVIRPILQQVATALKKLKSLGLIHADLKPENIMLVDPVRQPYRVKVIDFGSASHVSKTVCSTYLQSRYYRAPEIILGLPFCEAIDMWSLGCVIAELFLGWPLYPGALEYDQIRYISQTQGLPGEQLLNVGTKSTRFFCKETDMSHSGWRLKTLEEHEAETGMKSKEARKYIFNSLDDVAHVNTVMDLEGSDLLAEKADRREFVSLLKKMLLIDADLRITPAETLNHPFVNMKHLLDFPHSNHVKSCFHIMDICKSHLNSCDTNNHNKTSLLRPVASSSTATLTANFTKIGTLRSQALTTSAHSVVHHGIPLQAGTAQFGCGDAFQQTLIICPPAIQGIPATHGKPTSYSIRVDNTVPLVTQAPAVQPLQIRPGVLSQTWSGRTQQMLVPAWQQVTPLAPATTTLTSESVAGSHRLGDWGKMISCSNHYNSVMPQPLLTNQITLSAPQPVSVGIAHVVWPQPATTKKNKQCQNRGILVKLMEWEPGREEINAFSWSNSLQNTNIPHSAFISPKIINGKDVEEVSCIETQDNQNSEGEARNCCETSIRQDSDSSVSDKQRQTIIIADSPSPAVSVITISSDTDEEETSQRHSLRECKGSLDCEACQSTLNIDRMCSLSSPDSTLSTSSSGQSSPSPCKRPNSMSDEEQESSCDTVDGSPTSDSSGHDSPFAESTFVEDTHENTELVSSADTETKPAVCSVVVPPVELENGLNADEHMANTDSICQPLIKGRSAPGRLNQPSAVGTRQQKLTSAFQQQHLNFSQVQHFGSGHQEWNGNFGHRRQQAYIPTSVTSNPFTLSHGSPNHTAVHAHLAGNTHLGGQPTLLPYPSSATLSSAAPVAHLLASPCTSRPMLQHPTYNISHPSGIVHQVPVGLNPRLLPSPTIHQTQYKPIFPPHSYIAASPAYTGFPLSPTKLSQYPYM

CSK (human) = CSK (human) (UniProt P41240); conditions: compound 1.0 µM; ATP 20 µM
BRSK2 (human) = BRSK2 (human) (UniProt Q8IWQ3); conditions: compound 1.0 µM; ATP 50 µM
MAPKAPK5 (human) = MAPKAPK5 (human) (UniProt Q8IW41); conditions: ATP 20 µM
Sequence of MAPKAPK5 (human) (Q8IW41 whole entry, looked up): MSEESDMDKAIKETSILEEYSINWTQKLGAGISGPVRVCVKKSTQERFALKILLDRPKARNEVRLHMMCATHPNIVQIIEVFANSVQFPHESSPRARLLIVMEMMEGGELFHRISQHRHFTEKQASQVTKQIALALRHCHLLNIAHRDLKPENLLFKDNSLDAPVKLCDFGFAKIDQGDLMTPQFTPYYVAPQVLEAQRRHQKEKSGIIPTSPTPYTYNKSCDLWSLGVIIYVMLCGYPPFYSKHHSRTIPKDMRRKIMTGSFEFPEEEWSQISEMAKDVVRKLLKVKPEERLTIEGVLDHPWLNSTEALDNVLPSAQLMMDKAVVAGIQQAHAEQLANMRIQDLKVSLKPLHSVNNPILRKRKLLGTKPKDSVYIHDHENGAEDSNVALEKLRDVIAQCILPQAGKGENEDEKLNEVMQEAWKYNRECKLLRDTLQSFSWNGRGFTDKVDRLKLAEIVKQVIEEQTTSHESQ

PDPK1 (human) = PDPK1 (human) (UniProt O15530)
HIPK2 (human) = HIPK2 (human) (UniProt Q9H2X6); conditions: ATP 5 µM
CSNK1D (human) = CSNK1D (human) (UniProt P48730); conditions: compound 10.0 µM; ATP 20 µM
RPS6KA5 KD1 KD2 (human) = RPS6KA5 KD1 KD2 (human) (UniProt O75582); conditions: compound 1.0 µM; ATP 20 µM
[2] = target: PRKACA or PRKACB or PRKACG (human) (UniProt P22694+P22612+P17612); conditions: ATP 20 µM
Sequence of PRKACA or PRKACB or PRKACG (human) (P22612 whole entry, looked up, other chains not shown): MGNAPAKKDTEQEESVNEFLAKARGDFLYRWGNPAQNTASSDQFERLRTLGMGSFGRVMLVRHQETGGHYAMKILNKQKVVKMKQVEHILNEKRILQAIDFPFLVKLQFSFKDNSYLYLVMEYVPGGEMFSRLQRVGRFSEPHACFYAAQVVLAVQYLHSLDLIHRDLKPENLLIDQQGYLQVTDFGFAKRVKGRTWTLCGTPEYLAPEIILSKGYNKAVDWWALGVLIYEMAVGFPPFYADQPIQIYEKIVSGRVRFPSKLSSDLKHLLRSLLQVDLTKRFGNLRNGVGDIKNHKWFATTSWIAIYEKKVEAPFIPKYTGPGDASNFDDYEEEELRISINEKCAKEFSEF

CHEK1 (human) = CHEK1 (human) (UniProt O14757); conditions: ATP 20 µM
MAP2K1 (human) = MAP2K1 (human) (UniProt Q02750); conditions: compound 1.0 µM; ATP 5 µM
MAPKAPK2 (human) = MAPKAPK2 (human) (UniProt P49137); conditions: ATP 20 µM
Sequence of MAPKAPK2 (human) (P49137 whole entry, looked up): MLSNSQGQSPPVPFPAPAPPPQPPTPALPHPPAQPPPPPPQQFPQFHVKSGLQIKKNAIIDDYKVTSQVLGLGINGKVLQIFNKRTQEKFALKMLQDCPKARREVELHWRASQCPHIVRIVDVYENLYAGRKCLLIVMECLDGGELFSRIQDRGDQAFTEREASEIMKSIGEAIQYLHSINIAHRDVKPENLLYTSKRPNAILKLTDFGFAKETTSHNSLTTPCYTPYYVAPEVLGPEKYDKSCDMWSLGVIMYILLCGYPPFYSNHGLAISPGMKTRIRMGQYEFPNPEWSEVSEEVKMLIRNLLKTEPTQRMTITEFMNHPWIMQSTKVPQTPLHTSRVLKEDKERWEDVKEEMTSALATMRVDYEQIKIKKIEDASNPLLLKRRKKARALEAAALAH

PAK6 (human) = PAK6 (human) (UniProt Q9NQU5); conditions: ATP 20 µM
AURKC (human) = AURKC (human) (UniProt Q9UQB9); conditions: ATP 5 µM
Sequence of AURKC (human) (Q9UQB9 whole entry, looked up): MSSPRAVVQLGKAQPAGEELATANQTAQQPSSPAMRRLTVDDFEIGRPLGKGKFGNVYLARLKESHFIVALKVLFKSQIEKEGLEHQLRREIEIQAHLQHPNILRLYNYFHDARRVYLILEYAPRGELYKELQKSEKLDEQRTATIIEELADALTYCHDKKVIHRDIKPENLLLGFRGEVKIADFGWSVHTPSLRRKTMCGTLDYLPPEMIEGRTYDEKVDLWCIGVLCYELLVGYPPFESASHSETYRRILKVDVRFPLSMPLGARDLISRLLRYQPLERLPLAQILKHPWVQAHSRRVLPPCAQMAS

PAK4 (human) = PAK4 (human) (UniProt O96013); conditions: ATP 5 µM
NEK7 (human) = NEK7 (human) (UniProt Q8TDX7); conditions: compound 1.0 µM; ATP 20 µM
MKNK1 (human) = MKNK1 (human) (UniProt Q9BUB5); conditions: ATP 50 µM
Sequence of MKNK1 (human) (Q9BUB5 whole entry, looked up): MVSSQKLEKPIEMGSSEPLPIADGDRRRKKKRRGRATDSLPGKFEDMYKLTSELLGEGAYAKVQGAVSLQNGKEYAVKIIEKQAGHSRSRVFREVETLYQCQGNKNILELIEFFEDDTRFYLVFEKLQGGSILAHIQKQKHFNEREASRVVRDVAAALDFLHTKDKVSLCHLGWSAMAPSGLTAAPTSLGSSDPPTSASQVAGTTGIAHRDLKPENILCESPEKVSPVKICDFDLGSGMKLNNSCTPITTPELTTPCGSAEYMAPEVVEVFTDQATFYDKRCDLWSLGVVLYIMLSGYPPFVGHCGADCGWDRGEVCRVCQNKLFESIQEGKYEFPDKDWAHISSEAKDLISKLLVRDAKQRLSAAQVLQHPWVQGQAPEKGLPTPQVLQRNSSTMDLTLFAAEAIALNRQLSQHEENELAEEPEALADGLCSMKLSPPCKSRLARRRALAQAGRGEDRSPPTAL

AURKB (human) = AURKB (human) (UniProt Q96GD4); conditions: ATP 20 µM
Sequence of AURKB (human) (Q96GD4 whole entry, looked up): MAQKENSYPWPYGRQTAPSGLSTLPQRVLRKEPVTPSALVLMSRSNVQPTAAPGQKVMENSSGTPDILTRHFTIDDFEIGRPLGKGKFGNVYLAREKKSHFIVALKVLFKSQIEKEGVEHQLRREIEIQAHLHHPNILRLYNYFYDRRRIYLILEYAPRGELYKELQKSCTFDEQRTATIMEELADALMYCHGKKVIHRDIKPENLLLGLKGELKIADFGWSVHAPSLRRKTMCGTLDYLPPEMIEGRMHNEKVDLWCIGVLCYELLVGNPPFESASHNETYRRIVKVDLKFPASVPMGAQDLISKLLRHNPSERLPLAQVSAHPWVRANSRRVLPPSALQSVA

CDK2 CCNA2 (human) = CDK2 CCNA2 (human) (UniProt P24941+P20248); conditions: compound 1.0 µM; ATP 20 µM
MKNK2 (human) = MKNK2 (human) (UniProt Q9HBH9); conditions: ATP 50 µM
AKT2 (human) = AKT2 (human) (UniProt P31751); conditions: compound 1.0 µM; ATP 50 µM
MAPK1 (human) = MAPK1 (human) (UniProt P28482); conditions: compound 1.0 µM; ATP 50 µM
MAPK14 (human) = MAPK14 (human) (UniProt Q16539); conditions: compound 1.0 µM; ATP 50 µM
PKN2 (human) = PKN2 (human) (UniProt Q16513); conditions: compound 1.0 µM; ATP 5 µM
MAPK13 (human) = MAPK13 (human) (UniProt O15264); conditions: compound 1.0 µM; ATP 5 µM
SRPK1 (human) = SRPK1 (human) (UniProt Q96SB4); conditions: compound 1.0 µM; ATP 50 µM

residual activity (GSK3B (human)): 89%
residual activity (MAPK9 (human)): 105%
residual activity (MAPK11 (human); compound 10.0 µM): 114%
residual activity (NEK2 (human); compound 1.0 µM): 91%
residual activity (NEK2 (human); compound 10.0 µM): 100%
residual activity (MAPK10 (human); compound 1.0 µM): 88%
residual activity (MAPK10 (human); compound 10.0 µM): 80%
residual activity (PLK1 (human); compound 1.0 µM): 79%
residual activity (PLK1 (human); compound 10.0 µM): 90%
residual activity (PIM3 (human); compound 10.0 µM): 60%
residual activity ([1]; compound 1.0 µM): 100%
residual activity ([1]; compound 10.0 µM): 72%
residual activity (LCK (mouse); compound 1.0 µM): 84%
residual activity (LCK (mouse); compound 10.0 µM): 65%
residual activity (CAMKK1 (human); compound 1.0 µM): 93%
residual activity (CAMKK1 (human); compound 10.0 µM): 62%
residual activity (HIPK3 (human); compound 1.0 µM): 77%
residual activity (HIPK3 (human); compound 10.0 µM): 66%
residual activity (CSK (human)): 87%
residual activity (BRSK2 (human)): 96%
residual activity (MAPKAPK5 (human); compound 1.0 µM): 85%
residual activity (MAPKAPK5 (human); compound 10.0 µM): 79%
residual activity (PDPK1 (human); compound 1.0 µM, ATP 20 µM): 96%
residual activity (PDPK1 (human); compound 1.0 µM, ATP 50 µM): 76%
residual activity (PDPK1 (human); compound 10.0 µM, ATP 20 µM): 95%
residual activity (HIPK2 (human); compound 1.0 µM): 102%
residual activity (HIPK2 (human); compound 10.0 µM): 85%
residual activity (CSNK1D (human)): 111%
residual activity (RPS6KA5 KD1 KD2 (human)): 81%
residual activity ([2]; compound 1.0 µM): 91%
residual activity ([2]; compound 10.0 µM): 77%
residual activity (CHEK1 (human); compound 10.0 µM): 85%
residual activity (MAP2K1 (human)): 91%
residual activity (MAPKAPK2 (human); compound 1.0 µM): 84%
residual activity (MAPKAPK2 (human); compound 10.0 µM): 60%
residual activity (PAK6 (human); compound 1.0 µM): 116%
residual activity (PAK6 (human); compound 10.0 µM): 92%
residual activity (AURKC (human); compound 1.0 µM): 75%
residual activity (AURKC (human); compound 10.0 µM): 66%
residual activity (PAK4 (human); compound 1.0 µM): 92%
residual activity (PAK4 (human); compound 10.0 µM): 49%
residual activity (NEK7 (human)): 91%
residual activity (MKNK1 (human); compound 1.0 µM): 77%
residual activity (MKNK1 (human); compound 10.0 µM): 84%
residual activity (AURKB (human); compound 1.0 µM): 82%
residual activity (AURKB (human); compound 10.0 µM): 60%
residual activity (CDK2 CCNA2 (human)): 97%
residual activity (MKNK2 (human); compound 10.0 µM): 80%
SMILES: CC(C)(N)c1ccc(-c2nc3ccccc3nc2-c2ccccc2)cc1
residual activity (MAPK15 (human); compound 10.0 µM): 71%

SMILES: O=S(=O)(NCCNC/C=C/c1ccc(Br)cc1)c1cccc2cnccc12
residual activity (AKT2 (human)): 21%
residual activity (GSK3B (human)): 88%
residual activity (MAPK11 (human); compound 1.0 µM): 91%
residual activity (NEK2 (human); compound 1.0 µM): 102%
residual activity (MAPK10 (human); compound 1.0 µM): 93%
residual activity (MAPK15 (human); compound 1.0 µM): 93%
residual activity (PLK1 (human); compound 1.0 µM): 95%
residual activity (PIM3 (human); compound 1.0 µM): 91%
residual activity ([1]; compound 1.0 µM): 11%
residual activity (CAMKK1 (human); compound 1.0 µM): 102%
residual activity (HIPK3 (human); compound 1.0 µM): 106%
residual activity (CSK (human)): 89%
residual activity (BRSK2 (human)): 82%
residual activity (MAPKAPK5 (human); compound 1.0 µM): 89%
residual activity (PDPK1 (human); compound 1.0 µM, ATP 20 µM): 91%
residual activity (PDPK1 (human); compound 1.0 µM, ATP 50 µM): 56%
residual activity (HIPK2 (human); compound 1.0 µM): 101%
residual activity (RPS6KA5 KD1 KD2 (human)): 9%
residual activity (MAPK1 (human)): 88%
residual activity (MAPK14 (human)): 99%
residual activity ([2]; compound 1.0 µM): 15%
residual activity (CHEK1 (human); compound 1.0 µM): 71%
residual activity (MAPKAPK2 (human); compound 1.0 µM): 111%
residual activity (PKN2 (human)): 7%
residual activity (PAK6 (human); compound 1.0 µM): 76%
residual activity (AURKC (human); compound 1.0 µM): 73%
residual activity (MAPK13 (human)): 98%
residual activity (NEK7 (human)): 99%
residual activity (MKNK1 (human); compound 1.0 µM): 90%
residual activity (SRPK1 (human)): 93%
residual activity (AURKB (human); compound 1.0 µM): 70%
residual activity (CDK2 CCNA2 (human)): 75%
residual activity (MKNK2 (human); compound 1.0 µM): 97%
